Test results: patent US8389523B2, “Substituted quinoxaline and an agrochemical composition thereof” (Kumiai Chemical Industry Co., Ltd., priority 2007, dated 2013)

Legend:
Format in all cases: in vivo
Parameters in all cases: scale not given here
[1] = test system: Abutilon theophrasti medicus; experiment: Herbicidal effects in upland field foliar treatment (Test Example 3); conditions: criteria of Table 138; for herbicidal effects on Abutilon theophrasti medicus: 1000 g of the active ingredient per hectare, 14th day after the treatment, wettable powder; for herbicidal effect (index) on Abutilon theophrasti medicus: 1000 g active ingredient per hectare, 14th day after treatment
Summary of the method: (§1)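 Foliar spray of diluted wettable powder, 1000 g a.i./ha in 1000 L/ha, onto two-week-old greenhouse-grown seedlings in upland field soil. Plants kept in the greenhouse, with effect rated on a criteria scale at day 14.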

[2] = test system: Echinochloa crus-galli (L.) P. Beauv. var. crus-galli; experiment: as above; conditions: criteria of Table 138; for herbicidal effects on Echinochloa crus-galli (L.) P. Beauv. var. crus-galli: 1000 g of the active ingredient per hectare, 14th day after the treatment, wettable powder; for herbicidal effect (index) on Echinochloa crus-galli (L.) P. Beauv. var. crus-galli: 1000 g active ingredient per hectare, 14th day after treatment
Summary of the method: as §1

Amaranthus viridis L. [3] = experiment: as above; conditions: criteria of Table 138; for herbicidal effects on Amaranthus viridis L.: 1000 g of the active ingredient per hectare, 14th day after the treatment, wettable powder; for herbicidal effect (index) on Amaranthus viridis L.: 1000 g active ingredient per hectare, 14th day after treatment
Summary of the method: as §1

[4] = test system: Echinochloa oryzicola Vasing; experiment: Herbicidal effects in paddy field soil treatment (Test Example 1); conditions: for Herbicidal effects index, Echinochloa oryzicola Vasing: paddy field soil treatment, 1000 g of the active ingredient per hectare, wettable powder added dropwise on water surface, 21st day after treatment
Summary of the method: (§2)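 Application rate 1000 g a.i./ha, delivered as water-diluted wettable powder onto flooded (3 cm) paddy soil one day after sowing. Plants kept in a greenhouse and evaluated for herbicidal effect on day 21 post-treatment.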

[5] = test system: Scirpus juncoides Roxb. var. ohwianus. T. Koyama; experiment: as above; conditions: for Herbicidal effects index, Scirpus juncoides Roxb. var. ohwianus. T. Koyama: paddy field soil treatment, 1000 g of the active ingredient per hectare, wettable powder added dropwise on water surface, 21st day after treatment
Summary of the method: as §2

[6] = test system: Monochoria vaginalis (Burm. f.) Presl var. plantaginea (Roxb.) Solms-Laub.; experiment: as above; conditions: for Herbicidal effects index, Monochoria vaginalis (Burm. f.) Presl var. plantaginea (Roxb.) Solms-Laub.: paddy field soil treatment, 1000 g of the active ingredient per hectare, wettable powder added dropwise on water surface, 21st day after treatment
Summary of the method: as §2

[7] = test system: Abutilon theophrasti medicus; experiment: Herbicidal effects in upland field soil treatment (Test Example 2); conditions: 1000 g active ingredient per hectare, 21st day after treatment, criteria of Table 138
Summary of the method: (§3)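 Herbicidal effect graded 21 days after treatment, plants kept in greenhouse. Treatment was a soil-surface spray of wettable powder in water, 1000 g a.i./ha in 1000 L/ha, applied after sowing and covering seeds.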

Amaranthus viridis L. [8] = experiment: as above; conditions: 1000 g active ingredient per hectare, 21st day after treatment, criteria of Table 138
Summary of the method: as §3

[9] = paddy field soil treatment (Test Example 1), criteria of Table 138

Row | Compound | herbicidal effects on Abutilon theophrasti medicus [1] | herbicidal effects on Echinochloa crus-galli (L.) P. Beauv. var. crus-galli [2] | herbicidal effects on Amaranthus viridis L. (Amaranthus viridis L. [3]) | Herbicidal effects index, Echinochloa oryzicola Vasing [4] | Herbicidal effects index, Scirpus juncoides Roxb. var. ohwianus. T. Koyama [5] | Herbicidal effects index, Monochoria vaginalis (Burm. f.) Presl var. plantaginea (Roxb.) Solms-Laub. [6] | herbicidal effect (index) on Abutilon theophrasti medicus [7] | herbicidal effect (index) on Amaranthus viridis L. (Amaranthus viridis L. [8]) | herbicidal effect (index) on Echinochloa oryzicola Vasing [4, 9] | herbicidal effect (index) on Scirpus juncoides Roxb. var. ohwianus. T. Koyama [5, 9] | herbicidal effect (index) on Monochoria vaginalis (Burm. f.) Presl var. plantaginea (Roxb.) Solms-Laub. [6, 9] | herbicidal effect (index) on Abutilon theophrasti medicus [1] | herbicidal effect (index) on Echinochloa crus-galli (L.) P. Beauv. var. crus-galli [2] | herbicidal effect (index) on Amaranthus viridis L. (Amaranthus viridis L. [3])
1 | O=C1CCCC(O)=C1C(=O)c1nc2cccnc2n(Cc2ccccc2Cl)c1=O [III-111] | 5 | 5 | 5 | 5 | 5 | 5 | 5 | 5 | – | – | – | – | – | –
2 | COc1ccc2nc(C(=O)C3=C(O)CCCC3=O)c(=O)n(-c3ccccc3)c2c1 [II-252] | 5 | 5 | 5 | 5 | 5 | 5 | 5 | 5 | – | – | – | – | – | –
3 | O=C1CCCC(O)=C1C(=O)c1nc2cccnc2n(CC(F)(F)F)c1=O [III-40] | 5 | 4 | 5 | 5 | 5 | 5 | 5 | 5 | – | – | – | – | – | –
4 | O=C1CCCC(O)=C1C(=O)c1nc2cccnc2n(-c2cccc(OC(F)F)c2)c1=O [IV-90] | 5 | 5 | 5 | – | – | – | 5 | 5 | 5 | 5 | 5 | – | – | –
5 | O=C1CCCC(O)=C1C(=O)c1nc2ccccc2n(-c2ccc(C(F)(F)F)cc2)c1=O [II-44] | 5 | 5 | 5 | 5 | 5 | 5 | 5 | 5 | – | – | – | – | – | –
6 | COc1ccc(-n2c(=O)c(C(=O)C3=C(O)CCCC3=O)nc3cccc(F)c32)cc1 [II-189] | 5 | 5 | 5 | 5 | 5 | 5 | 5 | 5 | – | – | – | – | – | –
7 | O=C1CCCC(O)=C1C(=O)c1nc2ccccc2n(-c2ccc(F)cc2)c1=O [II-8] | – | – | – | 5 | 5 | 5 | 5 | 5 | – | – | – | 5 | 5 | 5
8 | O=C1CCCC(O)=C1C(=O)c1nc2c(F)cccc2n(-c2ccccc2)c1=O [II-233] | 5 | 5 | 5 | 5 | 5 | 5 | 5 | 5 | – | – | – | – | – | –
9 | CC(C)n1c(=O)c(C(=O)C2=C(O)CCCC2=O)nc2ccccc21 [Compound I-13] | – | – | – | 5 | 5 | 5 | 5 | 5 | – | – | – | 5 | 5 | 5
